{
  "source": "paper PMC3383625",
  "about": "(Chemistry & biology, 2012)",
  "key": {"Nox2 [1]": {"target": "T1, Nox2 (Homo sapiens, UniProt P04839)", "assay": "Cell-free assay for Nox2-dependent superoxide generation", "assay_type": "biochemical"}, "Nox1": {"target": "Nox1 (Homo sapiens, UniProt Q9Y5S8)", "sequence (Q8NFA2 whole entry partner)": "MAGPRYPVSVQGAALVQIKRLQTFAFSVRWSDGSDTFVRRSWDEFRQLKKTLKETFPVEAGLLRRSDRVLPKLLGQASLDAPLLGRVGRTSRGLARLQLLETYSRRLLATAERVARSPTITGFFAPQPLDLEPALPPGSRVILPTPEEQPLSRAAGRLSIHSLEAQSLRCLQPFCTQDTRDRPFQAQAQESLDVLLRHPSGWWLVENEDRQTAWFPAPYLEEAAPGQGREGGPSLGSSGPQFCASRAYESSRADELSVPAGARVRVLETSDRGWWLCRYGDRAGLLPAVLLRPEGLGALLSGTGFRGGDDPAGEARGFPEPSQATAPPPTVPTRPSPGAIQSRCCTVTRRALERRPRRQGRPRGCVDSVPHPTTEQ", "sequence (Q9Y5S8 whole entry)": "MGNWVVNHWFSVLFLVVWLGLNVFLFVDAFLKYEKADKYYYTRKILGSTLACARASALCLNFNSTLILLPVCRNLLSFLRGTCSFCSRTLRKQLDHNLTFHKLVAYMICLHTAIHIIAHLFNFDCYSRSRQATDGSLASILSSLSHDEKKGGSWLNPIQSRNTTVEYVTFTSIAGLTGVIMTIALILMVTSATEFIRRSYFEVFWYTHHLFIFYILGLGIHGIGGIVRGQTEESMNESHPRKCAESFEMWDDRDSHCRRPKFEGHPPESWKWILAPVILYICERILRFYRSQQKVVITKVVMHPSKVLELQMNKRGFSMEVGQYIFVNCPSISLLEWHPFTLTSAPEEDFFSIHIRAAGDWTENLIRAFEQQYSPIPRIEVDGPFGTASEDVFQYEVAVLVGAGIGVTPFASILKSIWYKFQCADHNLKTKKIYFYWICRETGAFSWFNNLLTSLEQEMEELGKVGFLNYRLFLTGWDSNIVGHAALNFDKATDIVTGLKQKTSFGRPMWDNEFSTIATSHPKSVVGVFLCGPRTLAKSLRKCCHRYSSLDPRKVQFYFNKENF", "assay": "Nox1 activity in whole cells"}, "Nox2 [2]": {"target": "T1, Nox2", "assay": "Nox2 activity in intact PMA-stimulated neutrophils", "assay_type": "cell-based"}, "Nox4": {"target": "T2, Nox4 (Homo sapiens, UniProt Q9NPH5)", "T2 sequence (Q9NPH5 1-578)": "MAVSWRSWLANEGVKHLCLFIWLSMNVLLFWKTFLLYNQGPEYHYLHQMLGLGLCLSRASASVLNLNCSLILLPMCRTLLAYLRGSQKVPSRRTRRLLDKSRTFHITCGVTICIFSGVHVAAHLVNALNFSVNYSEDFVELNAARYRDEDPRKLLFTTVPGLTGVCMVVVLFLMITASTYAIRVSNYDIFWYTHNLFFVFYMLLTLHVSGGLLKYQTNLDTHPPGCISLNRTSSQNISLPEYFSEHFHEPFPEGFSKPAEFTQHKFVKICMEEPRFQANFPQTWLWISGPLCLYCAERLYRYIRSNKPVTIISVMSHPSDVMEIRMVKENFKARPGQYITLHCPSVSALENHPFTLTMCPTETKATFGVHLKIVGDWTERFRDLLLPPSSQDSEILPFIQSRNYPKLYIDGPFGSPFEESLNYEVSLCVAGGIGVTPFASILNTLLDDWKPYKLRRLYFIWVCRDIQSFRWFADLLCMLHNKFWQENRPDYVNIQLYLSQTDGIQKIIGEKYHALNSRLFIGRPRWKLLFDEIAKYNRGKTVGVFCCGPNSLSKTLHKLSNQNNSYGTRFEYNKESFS", "T2 sequence (P13498 2-195 partner limits assumed)": "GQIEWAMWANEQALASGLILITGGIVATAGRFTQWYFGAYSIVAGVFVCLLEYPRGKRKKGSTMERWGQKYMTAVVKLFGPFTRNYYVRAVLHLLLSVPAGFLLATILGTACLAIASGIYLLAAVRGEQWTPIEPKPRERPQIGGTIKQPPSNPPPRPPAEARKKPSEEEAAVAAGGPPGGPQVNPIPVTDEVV", "assay": "Nox4 activity in whole cells", "assay_type": "cell-based", "conditions": "read-out: EC50 for inhibition of Nox4 activity in whole cell assay; HEK/Nox4rb cells; ns = no significant inhibition"}, "[3]": {"target": "T3, bis-SH3 domain of p47phox (binding of the PRD of p22phox) (Homo sapiens, UniProt P14598)", "T3 sequence (P14598 156-285)": "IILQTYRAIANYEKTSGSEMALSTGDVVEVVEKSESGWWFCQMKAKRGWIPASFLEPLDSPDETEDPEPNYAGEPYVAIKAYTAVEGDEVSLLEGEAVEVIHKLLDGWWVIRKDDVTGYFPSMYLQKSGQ", "assay": "Fluorescence polarization"}, "[4]": {"system": "p47phox and p67phox translocation in neutrophils", "assay_type": "cell-based, human", "conditions": "10 μM ebselen"}, "[5]": {"conditions": "ref Muller et al.,1984; cited from earlier work"}, "Kupffer cells": {"system": "Kupffer cells", "conditions": "read-out: IC50 for reactive oxygen by luminol luminescence; ref Wang et al.,1992; cited from earlier work"}, "PKC": {"system": "PKC", "conditions": "ref Cotgreave et al.,1989; cited from earlier work"}, "[6]": {"target": "T4, binding of MBP-p22-C and GST-p47-bis-SH3 (Homo sapiens, UniProt P14598)", "T4 sequence (P14598 156-285)": "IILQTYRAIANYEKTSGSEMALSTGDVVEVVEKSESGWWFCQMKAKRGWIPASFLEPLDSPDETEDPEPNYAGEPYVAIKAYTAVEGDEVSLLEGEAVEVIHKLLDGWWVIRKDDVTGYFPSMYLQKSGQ", "assay": "Pull-down assay of MBP-p22-C with GST-p47-bis-SH3 on glutathione agarose beads", "conditions": "20 μM ebselen"}, "[7]": {"target": "T5, p67phox-p47phox association (Homo sapiens, UniProt P14598)", "T5 sequence (P14598 1-390)": "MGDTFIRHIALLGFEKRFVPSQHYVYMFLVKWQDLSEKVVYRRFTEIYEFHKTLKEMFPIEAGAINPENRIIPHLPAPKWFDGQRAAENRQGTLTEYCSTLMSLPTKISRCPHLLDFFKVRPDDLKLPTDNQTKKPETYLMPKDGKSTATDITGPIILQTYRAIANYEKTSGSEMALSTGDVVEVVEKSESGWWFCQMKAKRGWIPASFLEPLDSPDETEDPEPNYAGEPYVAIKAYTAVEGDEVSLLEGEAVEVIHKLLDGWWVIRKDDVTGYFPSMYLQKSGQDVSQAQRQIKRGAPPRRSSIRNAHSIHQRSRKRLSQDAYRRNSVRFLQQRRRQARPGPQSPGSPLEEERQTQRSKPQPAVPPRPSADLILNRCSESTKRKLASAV", "assay": "Co-immunoprecipitation of p67phox with p47phox in PMA-stimulated neutrophils", "assay_type": "cell-based", "conditions": "10 μM ebselen, PMA-stimulated cells"}, "[8]": {"system": "guinea pig alveolar macrophages", "conditions": "read-out: IC50 for inhibition in guinea pig macrophages; ref Leurs et al.,1989; cited from earlier work"}, "[9]": {"system": "protein-kinase-C-mediated phosphorylation of p47phox", "assay": "PKC-mediated phosphorylation of p47phox in neutrophils", "assay_type": "cell-based, human", "conditions": "10 μM ebselen"}, "[10]": {"target": "T6, GST-tagged p47phox-bis-SH3 domain (GST-p47-bis-SH3) (human, UniProt P14598 156-285)", "T6 sequence (looked up)": "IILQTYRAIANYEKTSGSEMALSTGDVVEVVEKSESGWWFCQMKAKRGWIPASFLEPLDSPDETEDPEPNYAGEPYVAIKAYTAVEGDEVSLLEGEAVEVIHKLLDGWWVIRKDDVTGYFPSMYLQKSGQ", "assay": "fluorescence polarisation"}, "[11]": {"conditions": "comparator as named in text (parent Thr101 or fluoro-derivative j)"}},
  "note": "Several values for one entry are separate records, joined by “and”; a condition that tells them apart may be missing. Equal values may be shown once. Read-outs that look alike come from different tables or passages of the source. rhodamine = not defined here",
  "data": [
    {"molecule": "O=c1c2ccccc2sn1-c1ccccc1", "note": "[Thr101]", "values": [
      {"measurement": "IC50", "setting": "Nox2 [1]; read-out: IC50 in the cell-free Nox2 activity assay, neutrophil membranes, 1% DMSO", "value": "4000 nM and ~4000 nM"},
      {"measurement": "EC50", "setting": "Nox1; read-out: EC50 for inhibition of Nox1 activity in whole cell assay, HEK/Nox1rb cells, ns = no significant inhibition", "value": 3000, "unit": "nM"},
      {"measurement": "EC50", "setting": "Nox2 [2]; read-out: EC50 for inhibition of Nox2 activity in whole cell assay, human neutrophils, ns = no significant inhibition", "value": 300, "unit": "nM"},
      {"measurement": "EC50", "setting": "Nox4", "value": 8000, "unit": "nM"},
      {"measurement": "IC50", "setting": "[3]; read-out: IC50 in the FP binding assay, rho-PRD plus GST-p47-bis-SH3, 1% DMSO", "value": "4000 nM and ~4000 nM"}
    ]},
    {"molecule": "O=c1c2ccccc2[se]n1-c1ccccc1", "note": "[Ebselen]", "values": [
      {"measurement": "Effect on PMA-stimulated translocation of p47phox and p67phox", "setting": "[4]; 500 nM PMA", "value": "completely blocked"},
      {"measurement": "Effect on translocation in the absence of PMA", "setting": "[4]; no PMA", "value": "no effect on translocation"},
      {"measurement": "Optimum concentration needed to catalyze H2O2 peroxidase activity", "setting": "[5]", "value": "about 20 μM"},
      {"measurement": "IC50", "setting": "Kupffer cells", "value": "~1000", "unit": "nM"},
      {"measurement": "EC50", "setting": "Nox1", "value": 150, "unit": "nM"},
      {"measurement": "Concentration inhibiting purified PKC enzyme", "setting": "PKC", "value": "submicromolar"},
      {"measurement": "Inhibition of binding of MBP-p22-C and GST-p47-bis-SH3 in pulldown", "setting": "[6]", "value": "markedly inhibited"},
      {"measurement": "Effect on co-immunoprecipitation of p67phox with p47phox (words)", "setting": "[7]", "value": "did affect the ability of p67phox to coimmunoprecipitate with p47phox"},
      {"measurement": "Effect on co-immunoprecipitation of p67phox with p47phox (words)", "setting": "[7]; listed as ebselen", "value": "diminishes the co-immunoprecipitation"},
      {"measurement": "IC50", "setting": "[8]", "value": "~20000", "unit": "nM"},
      {"measurement": "IC50 in the FP binding assay", "setting": "[3]; rho-PRD plus GST-p47-bis-SH3, 1% DMSO", "value": "submicromolar"},
      {"measurement": "Effect on protein-kinase-C-mediated phosphorylation of p47phox or other neutrophil proteins (words)", "setting": "[9]", "value": "did not affect"},
      {"measurement": "Effect on protein-kinase-C-mediated phosphorylation of p47phox or other neutrophil proteins (words)", "setting": "[9]; listed as ebselen", "value": "does not inhibit PKC phosphorylation"}
    ]},
    {"molecule": "c1ccc2c(c1)[I+]c1ccccc1-2", "note": "[DPI, diphenylene iodonium]", "values": [
      {"measurement": "Luminescence relative to incubations containing DMSO vehicle alone", "setting": "Nox2 [1]; cell-free Nox2 assay, data not shown", "value": "less than 10%"},
      {"measurement": "Luminescence relative to DMSO-treated cells", "setting": "Nox2 [2]; neutrophils, 10 uM DPI, data not shown", "value": "less than 10%"}
    ]},
    {"molecule": "COC(=O)c1ccc(-n2sc3ccccc3c2=O)cc1", "note": "[l]", "values": [
      {"measurement": "Fold improvement in activity versus comparator compound", "setting": "Nox2 [1]; [11]", "value": "~ 10 fold"},
      {"measurement": "Fold improvement in binding versus comparator compound", "setting": "[3]; [11]", "value": "~ 10 fold"},
      {"measurement": "IC50", "setting": "[3]; read-out: Potency in the binding assay, FP assay", "value": 500, "unit": "nM"}
    ]},
    {"molecule": "rhodamine-PPTNPPPRPPAE-NH2 (reading uncertain)", "note": "[rhodamine-labeled peptide corresponding to the PRD of p22phox (rho-PRD)]", "values": [
      {"measurement": "Kd", "setting": "[10]", "value": "20 to 40 nM and 20 nM"}
    ]}
  ]
}
